Assay results taken from patent publication US20060069132A1, “Azolecarboxamide herbicides” (priority 2004, published 2006).

How the values were obtained:
velvetleaf = assay: Test B pre-/postemergence herbicide test; type: in vivo, Abutilon theophrasti; details: for Plant response rating (0 to 100 scale), Velvetleaf: 0 is no effect, 100 is complete control, preemergence; for Velvetleaf plant response rating: scale 0 (no effect) to 100 (complete control)
Outline: (§1)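 Test chemicals in a non-phytotoxic solvent mixture with surfactant were applied preemergence to seeded species and postemergence to plants 2-18 cm tall (1- to 4-leaf stage); rice and barnyardgrass were also tested in a flooded paddy at the 2-leaf stage. Visual rating versus controls after 13-15 days in greenhouse, scale 0 (no effect) to 100 (complete control).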

morningglory = assay: Test B pre-/postemergence herbicide test; type: in vivo, Ipomoea coccinea; details: for Plant response rating (0 to 100 scale), Morningglory: 0 is no effect, 100 is complete control, preemergence; for Morningglory plant response rating: scale 0 (no effect) to 100 (complete control)
Outline: (§2)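 Flooded paddy rice and barnyardgrass were treated at the 2-leaf stage; upland plantings received compound either on sown seed or on 1- to 4-leaf seedlings. All were kept 13–15 days in a greenhouse and scored visually, 0–100, relative to untreated plants.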

wild oat = assay: Test B postemergence herbicide test; type: in vivo, Avena fatua; details: scale 0 (no effect) to 100 (complete control)
Outline: (§3)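 Visual ratings, 0 (no effect) to 100 (complete control), made versus controls after 13–15 d greenhouse. Paddy plants treated at 2-leaf stage; postemergence plants at 1- to 4-leaf stage, 2–18 cm tall.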

lambsquarters = assay: Test B pre-/postemergence herbicide test; type: in vivo, Chenopodium album; details: for Lambsquarters plant response rating: scale 0 (no effect) to 100 (complete control)
Outline: as §1

cocklebur = assay: Test B pre-/postemergence herbicide test; type: in vivo, Xanthium strumarium; details: for Plant response rating (0 to 100 scale), Cocklebur: 0 is no effect, preemergence
Outline: as §2

barnyardgrass [1] = assay: Test B flooded paddy test; type: in vivo, Echinochloa crus-galli; details: 1000 g ai/ha, scale 0 to 100 (0 no effect, 100 complete control)
Outline: (§4)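 After treating 2-leaf paddy plants or 2–18 cm postemergence plants (1 to 4 leaves) with formulated chemical, researchers kept them in a greenhouse for 13–15 days. Effects were judged visually versus controls: 0 indicates none, 100 total control.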

large crabgrass = assay: Test B pre-/postemergence herbicide test; type: in vivo, Digitaria sanguinalis; details: for Plant response rating (0 to 100 scale), Crabgrass, Large: 0 is no effect, preemergence
Outline: as §1

ducksalad = assay: Test B flooded paddy test; type: in vivo, Heteranthera limosa; details: 1000 g ai/ha, scale 0 to 100 (0 no effect, 100 complete control)
Outline: as §4

[2] = test system: small flower umbrella sedge; assay: Test B flooded paddy test; type: in vivo, Cyperus difformis; details: 1000 g ai/ha, scale 0 to 100 (0 no effect, 100 complete control)
Outline: as §4

wheat = assay: Test B postemergence herbicide test; type: in vivo, Triticum aestivum; design: key to Wheat plant response rating: 0 = no effect, 100 = complete control
Outline: as §3

giant foxtail = assay: Test B pre-/postemergence herbicide test; type: in vivo, Setaria faberi; details: for Plant response rating (0 to 100 scale), Foxtail, Giant: 0 is no effect, preemergence
Outline: as §1

blackgrass = assay: Test B postemergence herbicide test; type: in vivo, Alopecurus myosuroides
Outline: as §4

pigweed = assay: Test B pre-/postemergence herbicide test; type: in vivo, Amaranthus retroflexus; details: for Plant response rating (0 to 100 scale), Pigweed: 0 is no effect, 100 is complete control, preemergence; for Pigweed plant response rating: scale 0 (no effect) to 100 (complete control)
Outline: as §1

corn = assay: Test B pre-/postemergence herbicide test; type: in vivo, Zea mays; details: for Plant response rating (0 to 100 scale), Corn: 0 is no effect, preemergence
Outline: as §1

rice = assay: Test B flooded paddy test; type: in vivo, Oryza sativa; details: 1000 g ai/ha, scale 0 to 100 (0 no effect, 100 complete control)
Outline: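 Paddy species grown to the 2-leaf stage under flooding; blackgrass sprayed postemergence at 2–18 cm (1- to 4-leaf stage). Plants kept in a greenhouse for 13 to 15 days, then visually rated against controls on 0 (no effect) to 100 (complete control).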

barnyardgrass [3] = assay: Test B pre-/postemergence herbicide test; type: in vivo, Echinochloa crus-galli; details: for Plant response rating (0 to 100 scale), Barnyardgrass: 0 is no effect, preemergence
Outline: as §2

Surinam grass = assay: Test B pre-/postemergence herbicide test; type: in vivo, Urochloa decumbens; details: for Plant response rating (0 to 100 scale), Surinam Grass: 0 is no effect, 100 is complete control, preemergence; for Surinam Grass plant response rating: scale 0 (no effect) to 100 (complete control)
Outline: as §1

[4] = 125 g ai/ha, visual rating, postemergence
[5] = 125 g ai/ha, 100 is complete control
[6] = 125 g ai/ha, visual rating, scale 0 (no effect) to 100 (complete control), postemergence
[7] = postemergence, 500 g ai/ha, scale 0 to 100, 0 is no effect, 100 is complete control
[8] = 500 g ai/ha, scale 0 to 100, 0 no effect, 100 complete control, preemergence
[9] = Postemergence, 500 g ai/ha, scale 0 (no effect) to 100 (complete control)

C#CCNC(=O)c1ccc(F)c(NC(=O)c2nn(C(C)(C)C)nc2CC)c1 [Compound 389]
Plant response rating (0 to 100 scale), Velvetleaf (velvetleaf; 125 g ai/ha): 0 | Velvetleaf plant response rating (velvetleaf; [4]): 0 | Velvetleaf plant response rating (velvetleaf; Postemergence, 500 g ai/ha): 20 | Plant response rating (0 to 100 scale), Morningglory (morningglory; 125 g ai/ha): 0 | Morningglory plant response rating (morningglory; [4]): 0 | Morningglory plant response rating (morningglory; Postemergence, 500 g ai/ha): 0 | Oat, Wild plant response rating (wild oat; [4]): 0 | Oat, Wild plant response rating (wild oat; Postemergence, 500 g ai/ha): 0 | Plant response rating (0 to 100 scale), Lambsquarters (lambsquarters; 125 g ai/ha, 0 is no effect, 100 is complete control, preemergence): 0 | Lambsquarters plant response rating (lambsquarters; [4]): 10 | Lambsquarters plant response rating (lambsquarters; Postemergence, 500 g ai/ha): 30 | Plant response rating (0 to 100 scale), Cocklebur (cocklebur; [5]): 0 | Cocklebur plant response rating (cocklebur; [6]): 0 | Cocklebur plant response rating (cocklebur; [7]): 0 | Barnyardgrass plant response rating (barnyardgrass [1]): 0 | Plant response rating (0 to 100 scale), Crabgrass, Large (large crabgrass; [5]): 0 | Crabgrass, Large plant response rating (large crabgrass; [6]): 0 | Crabgrass, Large plant response rating (large crabgrass; [7]): 10 | Ducksalad plant response rating (ducksalad): 0 | Sedge, Umbrella plant response rating [2]: 30 | Wheat plant response rating (wheat; [6]): 0 | Wheat plant response rating (wheat; [8]): 0 | Wheat plant response rating (wheat; [9]): 0 | Plant response rating (0 to 100 scale), Foxtail, Giant (giant foxtail; [5]): 0 | Foxtail, Giant plant response rating (giant foxtail; [6]): 0 | Foxtail, Giant plant response rating (giant foxtail; [7]): 10 | Blackgrass plant response rating (blackgrass; [6]): 0 | Blackgrass plant response rating (blackgrass; [7]): 10 | Plant response rating (0 to 100 scale), Pigweed (pigweed; 125 g ai/ha): 0 | Pigweed plant response rating (pigweed; [4]): 20 | Pigweed plant response rating (pigweed; Postemergence, 500 g ai/ha): 40 | Plant response rating (0 to 100 scale), Corn (corn; [5]): 0 | Corn plant response rating (corn; [6]): 0 | Corn plant response rating (corn; [7]): 0 | Rice plant response rating (rice): 20 | Plant response rating (0 to 100 scale), Barnyardgrass (barnyardgrass [3]; [5]): 0 | Barnyardgrass plant response rating (barnyardgrass [3]; [6]): 0 | Barnyardgrass plant response rating (barnyardgrass [3]; [7]): 0 | Plant response rating (0 to 100 scale), Surinam Grass (Surinam grass; 125 g ai/ha): 0 | Surinam Grass plant response rating (Surinam grass; [4]): 0 | Surinam Grass plant response rating (Surinam grass; Postemergence, 500 g ai/ha): 10

CCOC(=O)c1cccc(NC(=O)c2nn(C(C)C)nc2C)c1 [Compound 397]
Plant response rating (0 to 100 scale), Velvetleaf (velvetleaf; 125 g ai/ha): 0 | Velvetleaf plant response rating (velvetleaf; [4]): 10 | Velvetleaf plant response rating (velvetleaf; Postemergence, 500 g ai/ha): 50 | Plant response rating (0 to 100 scale), Morningglory (morningglory; 125 g ai/ha): 0 | Morningglory plant response rating (morningglory; [4]): 0 | Morningglory plant response rating (morningglory; Postemergence, 500 g ai/ha): 10 | Oat, Wild plant response rating (wild oat; [4]): 0 | Oat, Wild plant response rating (wild oat; Postemergence, 500 g ai/ha): 0 | Lambsquarters plant response rating (lambsquarters; [4]): 0 | Lambsquarters plant response rating (lambsquarters; Postemergence, 500 g ai/ha): 0 | Plant response rating (0 to 100 scale), Cocklebur (cocklebur; [5]): 0 | Cocklebur plant response rating (cocklebur; [6]): 0 | Cocklebur plant response rating (cocklebur; [9]): 0 | Barnyardgrass plant response rating (barnyardgrass [1]): 0 | Plant response rating (0 to 100 scale), Crabgrass, Large (large crabgrass; [5]): 0 | Crabgrass, Large plant response rating (large crabgrass; [6]): 0 | Crabgrass, Large plant response rating (large crabgrass; [9]): 10 | Ducksalad plant response rating (ducksalad): 0 | Sedge, Umbrella plant response rating [2]: 70 | Wheat plant response rating (wheat; [6]): 0 | Wheat plant response rating (wheat; [8]): 0 | Wheat plant response rating (wheat; [9]): 10 | Plant response rating (0 to 100 scale), Foxtail, Giant (giant foxtail; [5]): 0 | Foxtail, Giant plant response rating (giant foxtail; [6]): 10 | Foxtail, Giant plant response rating (giant foxtail; [9]): 40 | Blackgrass plant response rating (blackgrass; [6]): 0 | Blackgrass plant response rating (blackgrass; [9]): 0 | Plant response rating (0 to 100 scale), Pigweed (pigweed; 125 g ai/ha): 0 | Pigweed plant response rating (pigweed; [4]): 0 | Pigweed plant response rating (pigweed; Postemergence, 500 g ai/ha): 0 | Plant response rating (0 to 100 scale), Corn (corn; [5]): 0 | Corn plant response rating (corn; [6]): 0 | Corn plant response rating (corn; [9]): 10 | Rice plant response rating (rice): 10 | Plant response rating (0 to 100 scale), Barnyardgrass (barnyardgrass [3]; [5]): 0 | Barnyardgrass plant response rating (barnyardgrass [3]; [6]): 0 | Barnyardgrass plant response rating (barnyardgrass [3]; [9]): 0 | Plant response rating (0 to 100 scale), Surinam Grass (Surinam grass; 125 g ai/ha): 0 | Surinam Grass plant response rating (Surinam grass; [4]): 10 | Surinam Grass plant response rating (Surinam grass; Postemergence, 500 g ai/ha): 10
